The target in this test is MAGL (Homo sapiens (Human), UniProt Q99685). Nature of the test: 2-AG assay: MAGL inhibitory activity by hydrolysis of 2-arachidonoylglycerol to arachidonic acid (mass spectrometry). The class given is biochemical. As to conditions: measured in 2-AG assay (footnote [b]); 8 μM 2-arachidonoylglycerol. As for the experimental part:
Alternatively, compounds were profiled for MAGL inhibitory activity by determining the enzymatic activity by following the hydrolysis of the natural substrate 2-arachidonoylglycerol resulting in arachidonic acid, which can be followed by mass spectrometry. This assay is hereinafter abbreviated “2-AG assay”.
A C18 SPE cartridge (G9205A) was used in an acetonitrile/water liquid setup. […] The activity of the compounds was calculated based on the ratio of intensities [arachidonic acid/d8-arachidonic acid].

By pIC50 is commonly meant −log10 of the IC50, conventionally taken in molar units.

pIC50: −log10 of the molar value.

Chain of MAGL (Q99685 whole entry, species assumed): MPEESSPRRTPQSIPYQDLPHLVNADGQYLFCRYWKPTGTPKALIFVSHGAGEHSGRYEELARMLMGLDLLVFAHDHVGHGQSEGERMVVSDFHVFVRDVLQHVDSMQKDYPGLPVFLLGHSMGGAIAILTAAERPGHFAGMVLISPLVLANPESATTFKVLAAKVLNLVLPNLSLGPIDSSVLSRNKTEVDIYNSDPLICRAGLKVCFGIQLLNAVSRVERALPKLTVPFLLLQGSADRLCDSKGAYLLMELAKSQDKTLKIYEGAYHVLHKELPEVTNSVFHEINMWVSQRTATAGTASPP

The molecule `O=C1CO[C@H]2CCN(C(=O)N3CC(OCc4ccc(Cl)cc4Cl)C3)C[C@H]2N1` [Example 87] gave a pIC50 of 8.22.

In the case of `COc1cc(COC2CN(C(=O)N3CC[C@@H]4OCC(=O)N[C@@H]4C3)C2)ccc1C(F)(F)F` [Example 88], the pIC50 is 8.30. Consider `Cc1cc(OCC2CCN(C(=O)N3CC[C@@H]4OCC(=O)N[C@@H]4C3)CC2)cnc1C(F)(F)F` [Example 89], for which the pIC50 was 7.47. `O=C1CO[C@H]2CCN(C(=O)N3CCC(COc4cccc(Cl)c4)C3)C[C@H]2N1` (stereo partly drawn) [Example 90] gave a pIC50 of 6.77. `O=C1CO[C@H]2CCN(C(=O)N3CCC(COc4ccccc4Cl)C3)C[C@H]2N1` (stereo partly drawn) [Example 91] gave a pIC50 of 7.00. `O=C1CO[C@H]2CCN(C(=O)N3CCC(Cc4ccc(C(F)(F)F)cc4F)CC3)C[C@H]2N1` [Example 92]: the pIC50 was 7.85.

As for `O=C1CO[C@H]2CCN(C(=O)N3CC(Oc4ccc(C(F)(F)F)cc4)C3)C[C@H]2N1` [Example 118], the pIC50 was 6.88. In turn, `O=C1CO[C@H]2CCN(C(=O)N3CCC(Oc4ccc(Cl)c(C(F)(F)F)c4)CC3)C[C@H]2N1` [Example 119] gave a negative-log IC50 (pIC50) of 7.85.

Molecule `O=C1CO[C@H]2CCN(C(=O)N3CCC(Oc4ccc(Cl)c(C5CC5)c4)CC3)C[C@H]2N1` [Example 120] had a pIC50 of 8.15. Consider `O=C1CO[C@H]2CCN(C(=O)N3CCC(Oc4ccc(Cl)c(N5CCOCC5)c4)CC3)C[C@H]2N1` [Example 121], for which the pIC50 is 6.82. Consider `Cc1cc(C(F)(F)F)ccc1OC1CCN(C(=O)N2CC[C@@H]3OCC(=O)N[C@@H]3C2)CC1` [Example 122], for which the pIC50 is 8.10. `N#Cc1cc(C(F)(F)F)ccc1OC1CCN(C(=O)N2CC[C@@H]3OCC(=O)N[C@@H]3C2)CC1` [Example 123] had a pIC50 of 7.09. This pIC50 is 1.01 log units lower than that of the molecule before. As for `O=C1CO[C@H]2CCN(C(=O)N3CCC(Cc4nc5ccncc5o4)CC3)C[C@H]2N1` [Example 124], the pIC50 is 5.99. As to `O=C1CO[C@H]2CCN(C(=O)N3CCCC(COc4ccc(F)cc4Cl)CC3)C[C@H]2N1` (stereo partly drawn) [Example 140], the pIC50 was 7.23. Compared with the last molecule, the pIC50 is 1.24 log units higher. As for `O=C1CO[C@H]2CCN(C(=O)N3CCCC(COc4ccc(F)cc4Cl)CC3)C[C@H]2N1` (stereo partly drawn) [Example 141], the pIC50 is 7.40. In turn, `O=C1CO[C@H]2CCN(C(=O)N3CCCC(Cc4ccc(C(F)(F)F)cc4)CC3)C[C@H]2N1` (stereo partly drawn) [Example 142] showed a pIC50 of 7.12. This pIC50 lies 0.28 log units lower than the previous one. `O=C1CO[C@H]2CCN(C(=O)N3CCC(Oc4cc(-n5cccn5)cc(C(F)(F)F)c4)CC3)C[C@H]2N1` [Example 201] showed a pIC50 of 6.62. `O=C1CO[C@H]2CCN(C(=O)N3CCC(Cc4ccc(C(F)(F)F)cc4OCC(F)(F)F)CC3)C[C@H]2N1` [Example 202]: the pIC50 is 7.27.

As to `O=C1CO[C@H]2CCN(C(=O)N3CCC(Oc4cc(-n5cncn5)cc(C(F)(F)F)c4)CC3)C[C@H]2N1` [Example 203], the pIC50 was 6.06. `O=C1CO[C@H]2CCN(C(=O)N3CC(Oc4ccc(Cl)c(C(F)(F)F)c4)C3)C[C@H]2N1` [Example 204] had a pIC50 of 7.00. On to `O=C1CO[C@H]2CCN(C(=O)N3CCC(Oc4ccc(Cl)c(-n5cccn5)c4)CC3)C[C@H]2N1` [Example 205], for which the pIC50 was 7.07. In turn, `O=C1CO[C@H]2CCN(C(=O)N3CCC(Oc4ccc(C(F)(F)F)c(N5CCOCC5)c4)CC3)C[C@H]2N1` [Example 206] showed a pIC50 of 7.64.

As to `O=C1CO[C@H]2CCN(C(=O)N3CCC(Oc4ccc(Cl)c(-n5cncn5)c4)CC3)C[C@H]2N1` [Example 207], the negative logarithm of the IC50 (pIC50) was 7.30.

`O=C1CO[C@H]2CCN(C(=O)N3CCC(Oc4ccc(C(F)(F)F)c(C5CC5)c4)CC3)C[C@H]2N1` [Example 208] showed a pIC50 of 8.52.

The record behind these values is US11802133B2, “Heterocyclic compounds as monoacylglycerol lipase inhibitors” (Hoffmann-La Roche Inc., priority 2018, dated 2023).
